System: Mouse Ear Edema Induced by TPA
Test: Mouse ear edema induced by TPA
Assay type: in vivo
Conditions: topical, 0.3 mg/20 μL/ear × 2; ICR male mouse; 6 hours after TPA
Description: Pharmacological Test Example 2: Mouse Ear Edema Induced by TPA
This test was carried out referring to the method of Carlson, R. P. et al. (Agents and Actions, 17(2): 197–204 (1985).) and the method of Chang, J. (European Journal of Pharmacology, 142: 197–205 (1987).). More specifically, 5 μg/20 μL of TPA (Sigma Chemical Co.), dissolved with ethanol, was topically applied to the anterior and posterior surfaces of the right ear of an ICR-strain male mouse (6–7 weeks old). 6 hours later, the thickness of each ear at the particular part was respectively measured three times using a digimatic micrometer to calculate the mean value. Ear edema was determined by subtracting the mean thickness of the left ear as without treatment from that of the right ear as TPA-applied. Topical application activity was evaluated by applying an acetone solution of the compound of the present invention or 0.1% Tween 80/acetone solution thereof similarly to the anterior and posterior surfaces of the right ear 30 min. before and 15 min. after the TPA-application. […] Oral administration activity was evaluated by administrating 0.2% Tween 80 suspension of the compound of the present invention forcibly and perorally to the mouse an hour prior to the TPA-application. As the positive control, 100 mg/kg of Hydrocortisone (Sigma Chemical Co., H 4001) suspension was applied to the mouse similarly as for the compound of the present invention.

SMILES: CCOC(=O)C(=C1N[C@@H](C)[C@H](c2ccc(Cl)cc2)S1)[N+](=O)[O-] (relative stereo) [Compound 2-29, Trans-5-(4-chlorophenyl)-4-methyl-2-(1-ethoxycarbonyl-1-nitromethylene)-thiazolidine]
- Ear Edema Inhibition (%): 78.6%

Source: patent US7189751B2, “Oxa(thia)zolidine compounds, process for preparation thereof and anti-inflammatory agents” (Nippon Soda Co., Ltd., priority 2001, dated 2007)
